# Test system: MDA-MB-231 complex spheroid viability
# Assay: Anticancer human tumor MDA-MB-231/ATCC cell line growth inhibition;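 further: drug exposure lasted 7 days starting on day 3 of spheroid growth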
# Conditions: for IC50: curve of first compound; for viability, T/C: stronger effect = lower value
# Method in brief: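 Drug combinations with the LSD1 inhibitor iadademstat tested on tumor cells co-cultured as spheroids with endothelial cells and mesenchymal stem cells. Concentrations descended in half-log increments from clinical Cmax or 10 microM.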
structure (smiles),measurement,setting,value
Nc1ncn(C2CC(O)C(CO)S2)c(=O)n1 (stereo not given) + NC1CC1c1ccc(-c2cccc(O)c2)cc1,IC50,second compound 0.1 µM,7.45 nM
same,IC50,second compound 0.316 µM,5.79 nM
same,IC50,second compound 1 µM,3.18 nM
same,IC50,second compound 3.16 µM,4.17 nM
same,IC50,second compound 10 µM,1.08 nM
same,"viability, T/C","second compound 0.1 µM, first compound 0.000949 µM",68.5%
same,"viability, T/C","second compound 0.1 µM, first compound 0.003 µM",61.9%
same,"viability, T/C","second compound 0.1 µM, first compound 0.00949 µM",45.6%
same,"viability, T/C","second compound 0.1 µM, first compound 0.03 µM",32.4%
same,"viability, T/C","second compound 0.1 µM, first compound 0.0949 µM",17%
same,"viability, T/C","second compound 0.1 µM, first compound 0.3 µM",11.3%
same,"viability, T/C","second compound 0.316 µM, first compound 0.000949 µM",60.4%
same,"viability, T/C","second compound 0.316 µM, first compound 0.003 µM",59.5%
same,"viability, T/C","second compound 0.316 µM, first compound 0.00949 µM",43.5%
same,"viability, T/C","second compound 0.316 µM, first compound 0.03 µM",27.6%
same,"viability, T/C","second compound 0.316 µM, first compound 0.0949 µM",17.8%
same,"viability, T/C","second compound 0.316 µM, first compound 0.3 µM",9.51%
same,"viability, T/C","second compound 1 µM, first compound 0.000949 µM",54%
same,"viability, T/C","second compound 1 µM, first compound 0.003 µM",53.4%
same,"viability, T/C","second compound 1 µM, first compound 0.00949 µM",39.1%
same,"viability, T/C","second compound 1 µM, first compound 0.03 µM",28.5%
same,"viability, T/C","second compound 1 µM, first compound 0.0949 µM",18.3%
same,"viability, T/C","second compound 1 µM, first compound 0.3 µM",10.4%
same,"viability, T/C","second compound 3.16 µM, first compound 0.000949 µM",59.4%
same,"viability, T/C","second compound 3.16 µM, first compound 0.003 µM",53.7%
same,"viability, T/C","second compound 3.16 µM, first compound 0.00949 µM",41.1%
same,"viability, T/C","second compound 3.16 µM, first compound 0.03 µM",31%
same,"viability, T/C","second compound 3.16 µM, first compound 0.0949 µM",16.1%
same,"viability, T/C","second compound 3.16 µM, first compound 0.3 µM",9.57%
same,"viability, T/C","second compound 10 µM, first compound 0.000949 µM",51.1%
same,"viability, T/C","second compound 10 µM, first compound 0.003 µM",41.2%
same,"viability, T/C","second compound 10 µM, first compound 0.00949 µM",28.2%
same,"viability, T/C","second compound 10 µM, first compound 0.03 µM",19.5%
same,"viability, T/C","second compound 10 µM, first compound 0.0949 µM",12.1%
same,"viability, T/C","second compound 10 µM, first compound 0.3 µM",9.21%
CC(C)CC(NC(=O)C(Cc1ccccc1)NC(=O)c1cnccn1)B(O)O (stereo not given) + NC1CCC(NC2CC2c2ccccc2)CC1,IC50,second compound 0.1 µM,1.2 nM
same,IC50,second compound 0.316 µM,1.23 nM
same,IC50,second compound 1 µM,1.05 nM
same,IC50,second compound 3.16 µM,0.729 nM
same,IC50,second compound 10 µM,0.478 nM
same,"viability, T/C","second compound 0.1 µM, first compound 0.000316 µM",106%
same,"viability, T/C","second compound 0.1 µM, first compound 0.001 µM",59.2%
same,"viability, T/C","second compound 0.1 µM, first compound 0.00316 µM",1.89%
same,"viability, T/C","second compound 0.1 µM, first compound 0.01 µM",0.42%
same,"viability, T/C","second compound 0.1 µM, first compound 0.0316 µM",0.53%
same,"viability, T/C","second compound 0.1 µM, first compound 0.1 µM",3.01%
same,"viability, T/C","second compound 0.316 µM, first compound 0.000316 µM",107%
same,"viability, T/C","second compound 0.316 µM, first compound 0.001 µM",60.7%
same,"viability, T/C","second compound 0.316 µM, first compound 0.00316 µM",1.73%
same,"viability, T/C","second compound 0.316 µM, first compound 0.01 µM",0.23%
same,"viability, T/C","second compound 0.316 µM, first compound 0.0316 µM",0.28%
same,"viability, T/C","second compound 0.316 µM, first compound 0.1 µM",0.27%
same,"viability, T/C","second compound 1 µM, first compound 0.000316 µM",104%
same,"viability, T/C","second compound 1 µM, first compound 0.001 µM",52%
same,"viability, T/C","second compound 1 µM, first compound 0.00316 µM",3.37%
same,"viability, T/C","second compound 1 µM, first compound 0.01 µM",0.18%
same,"viability, T/C","second compound 1 µM, first compound 0.0316 µM",0.38%
same,"viability, T/C","second compound 1 µM, first compound 0.1 µM",0.72%
same,"viability, T/C","second compound 3.16 µM, first compound 0.000316 µM",70%
same,"viability, T/C","second compound 3.16 µM, first compound 0.001 µM",42.4%
same,"viability, T/C","second compound 3.16 µM, first compound 0.00316 µM",1.87%
same,"viability, T/C","second compound 3.16 µM, first compound 0.01 µM",0.16%
same,"viability, T/C","second compound 3.16 µM, first compound 0.0316 µM",0.08%
same,"viability, T/C","second compound 3.16 µM, first compound 0.1 µM",0.54%
same,"viability, T/C","second compound 10 µM, first compound 0.000316 µM",58.9%
same,"viability, T/C","second compound 10 µM, first compound 0.001 µM",34.1%
same,"viability, T/C","second compound 10 µM, first compound 0.00316 µM",0.9%
same,"viability, T/C","second compound 10 µM, first compound 0.01 µM",0.23%
same,"viability, T/C","second compound 10 µM, first compound 0.0316 µM",1.54%
same,"viability, T/C","second compound 10 µM, first compound 0.1 µM",1.08%

# Reference: PubChem BioAssay AID1918953 (Molecular Pharmacology Branch, DTP, NCI, 2023)
